Earlier results as cited in patent US10471038B2, “Inhibitor of muscle damage or muscle fatigue” ([…] LABORATORY, CO., LTD., priority 2015, dated 2019).

Tested on: calpain
Details: mdx mice, intramuscular injection

Compound: CC(=O)N[C@@H](CC(C)C)C(=O)N[C@@H](CC(C)C)C(=O)N[C@H](C=O)CCCNC(=N)N [leupeptin]
- activation of calpain in muscle tissue and muscle breakdown: inhibited
